Reference: patent US10017459B2, “β-substituted β-amino acids and analogs as chemotherapeutic agents and uses thereof” (Quadriga Biosciences, Inc., priority 2015, dated 2018)

Key:
[1] = tested on: LLCPK cells conditionally expressing hLAT1
[2] = tested on: mouse melanoma cells; assay: Mouse melanoma efficacy in syngeneic mice
[3] = tested on: Mia-PaCa2; assay: In vitro cytotoxicity, Mia-PaCa2; type: cell-based; settings: Homo sapiens, MIA PaCa-2, read-out: IC50 (in vitro toxicity)
[4] = tested on: U251; assay: cells; type: cell-based; settings: Homo sapiens, U-251, read-out: IC50 (in vitro toxicity)
[5] = tested on: Human prostate cancer PC3 cells; settings: mouse, in vivo
[6] = tested on: MDA-MB-231; assay: cells; type: cell-based; settings: Homo sapiens, MDA-MB-231, read-out: IC50 (in vitro toxicity)
[7] = tested on: KMS11; assay: cells; type: cell-based; settings: Homo sapiens, KMS-11, read-out: IC50 (in vitro toxicity)
[8] = tested on: 42MGBA; assay: cells; type: cell-based; settings: read-out: IC50 (in vitro toxicity)
[9] = tested on: Raji; assay: cells; type: cell-based; settings: Homo sapiens, read-out: IC50 (in vitro toxicity)
[10] = tested on: 794; assay: cells; type: cell-based; settings: read-out: IC50 (in vitro toxicity)
[11] = tested on: HCT116; assay: In vitro cytotoxicity, HCT116; type: cell-based; settings: Homo sapiens, HCT-116, read-out: IC50 (in vitro toxicity)
[12] = tested on: MDA-MB-231; assay: Breast cancer xenograft study, IP dosing; type: in vivo, mouse
Protocol: The efficacy of compounds provided by the present disclosure was evaluated on a triple negative breast cancer xenograft model—MDA-MB-231. The tumors were implanted into mice and the study was initiated after the volume of the tumors was 140 mm^3. The animals were IP dosed once a week or 3 times per week for 3 weeks with either vehicle or 1.25 mg/kg, 2.5 mg/kg, or 5 mg/kg of compound (5). The tumor volume, body weight, white blood cell count, and granulocyte count were determined during the study and 20 days after the final dose was administered. […] Tumor growth remained about 90% suppressed 20 days post-dosing following the 5 mg/kg treatment regimens.

[13] = tested on: RPMI8266; assay: cells; type: cell-based; settings: RPMI8266, read-out: IC50 (in vitro toxicity)
[14] = tested on: U251 MG; assay: Orthotopic glioblastoma study (Example 83); type: in vivo, mouse; settings: athymic mice, 10 mg/kg IP once weekly for 4 weeks
Protocol: The efficacy of compounds provided by the present disclosure was evaluated using an orthotopic luciferase human glioblastoma model—U251 MG. Human glioblastoma cells were intracolonically injected (3×10^5 cells/3 μL) into athymic mice (female, 4-5 weeks-old, nu/un homozygous). Treatment began when the BLI reached a log-phase growth, at about 14 days after injection. Ten mice were assigned to each arm of the study. The mice were dosed with vehicle (IP, once weekly for 4 weeks), temozolomide (TMZ, 4 mg/kg, OG once daily for 5 days), or compound (5) (10 mg/kg, IP once weekly for 4 weeks). The tumor volume was measured using bioluminescence imaging.

[15] = tested on: MDA-MB-231; assay: Triple negative breast cancer study, IV dosing; type: in vivo, mouse; settings: IV once a week for 8 weeks
Protocol: The efficacy of compounds provided by the present disclosure was evaluated on a triple negative breast cancer xenograft model—MDA-MB-231. Human triple negative breast cancer cells were implanted into the flank of nude mice and the study was initiated after the volume of the tumors was 150 mm^3. The animals were IV dosed once a week for 8 weeks with either vehicle or 5 mg/kg of compound (5), or 20 mg/kg compound (7). The tumor volume, body weight, white blood cell count, and granulocyte count were determined during the study and 12 days after the final dose was administered.

[16] = tested on: HS5; assay: cells; type: cell-based; settings: HS5, read-out: IC50 (in vitro toxicity)
[17] = tested on: U266; assay: cells; type: cell-based; settings: Homo sapiens, U-266, read-out: IC50 (in vitro toxicity)
[18] = tested on: KMS34; assay: cells; type: cell-based; settings: KMS-34, read-out: IC50 (in vitro toxicity)
[19] = tested on: HS27A; assay: cells; type: cell-based; settings: HS-27A, read-out: IC50 (in vitro toxicity)
[20] = tested on: MM1.S; assay: cells; type: cell-based; settings: Homo sapiens, read-out: IC50 (in vitro toxicity)
[21] = tested on: MV411; assay: cells; type: cell-based; settings: Homo sapiens, MV4-11, read-out: IC50 (in vitro toxicity)
[22] = tested on: 1334; assay: In vitro cytotoxicity, 1334; type: cell-based; settings: read-out: IC50 (in vitro toxicity)
[23] = tested on: human bone marrow cells (erythroid and myeloid progenitors); assay: In vitro bone marrow toxicity, colony forming cell assays; settings: 14 days in culture, methylcellulose media
[24] = tested on: DBRTG; assay: cells; type: cell-based; settings: read-out: IC50 (in vitro toxicity)
[25] = tested on: PC3; assay: cells; type: cell-based; settings: Homo sapiens, PC-3, read-out: IC50 (in vitro toxicity)

Cc1ccc(N(CCCl)CCCl)cc1C[C@H](N)CC(=O)O [Compound 5, (3S)-3-Amino-4-[5-[bis(2-chloroethyl)amino]-2-methyl-phenyl]butanoic Acid]
IC50, S isomer compared with R isomer [1]: significantly less than the IC50 of the R isomer | tumor growth after end of dosing ([2]; after dosing ended at 12 days): Tumors began to grow | tumor growth ([2]; dosed daily for 12 days): suppressed tumor growth | white blood cell count ([2]; during treatment): remained within the normal range | IC50 [3]: < 100 µM | IC50 [4]: < 100 µM | body weight [5]: maintained weight | myelosuppression [5]: not dectected | tumor growth suppression [5]: dose-dependent tumor growth suppression | IC50 [6]: < 100 µM | IC50 [7]: > 100 µM | IC50 [8]: < 100 µM | IC50 [9]: < 100 µM | IC50 [10]: < 100 µM | IC50 [11]: < 100 µM | tumor growth post-treatment ([12]; 1.25 mg/kg and 2.5 mg/kg regimens, IP): demonstrated a dose response | growth of the tumors ([12]; 2.5 mg/kg and 5 mg/kg dosing regimens, IP once a week or 3 times per week for 3 weeks): nearly completely suppressed | tumor growth suppression 20 days post-dosing ([12]; 5 mg/kg treatment regimens, IP): about 90% | animal body weights ([12]; all dosing regimens): increased | white blood cell count and granulocyte count ([12]; during and following treatment, all dosing regimens): remained within normal range | IC50 [13]: > 100 µM | crossing of the BBB [14]: crossed the BBB | glioblastoma tumor growth (bioluminescence imaging) [14]: suppressed glioblastoma tumor growth | body weight [15]: maintained weight | myelosuppression [15]: not dectected | tumor growth suppression ([15]; nude mice, 5 mg/kg compound (5), 20 mg/kg compound (7)): dose-dependent tumor growth suppression | IC50 [16]: > 100 µM | IC50 [17]: < 100 µM | IC50 [18]: > 100 µM | IC50 [19]: > 100 µM | IC50 [20]: < 100 µM | IC50 [21]: < 100 µM | IC50 [22]: < 100 µM | toxicity to bone marrow progenitor cells (BFU-E, CFU-GM, Total CFC) [23]: melphalan is more toxic to bone marrow progenitor cells than compound (5) | IC50 [24]: < 100 µM | IC50 [25]: < 100 µM
